Data as given in patent US12540129B2, “KIF18A inhibitors” (AMGEN INC., priority 2019, dated 2026).

Molecular target: T1, Recombinant human KIF18A (1-467 His-tagged) protein (Homo sapiens, UniProt Q8NI77)
T1 construct: Recombinant human KIF18A (1-467 His-tagged) protein; His; made in house
Experiment: KIF18A Enzyme Assay: microtubule-stimulated ATPase activity (ADP-Glo)
Type: biochemical
Conditions: 30 nM KIF18A, 75 μM ATP
Source text: KIF18A Enzyme Assay: Microtubule-stimulated ATPase activity assay is used to measure KIF18A enzyme activity after treatment with compound. Compounds were 2-fold serially diluted in DMSO (Sigma Inc) over 22-point concentration range. Recombinant human KIF18A (1-467 His-tagged) protein was expressed using a baculovirus system and purified by affinity chromatography by Amgen Inc. Concentrations of KIF18A protein, microtubules (MT), and ATP in the reaction were optimized for standardized homogenous enzyme assay using ADP-Glorm Kinase/ATPase Assay Kit (Promega Inc). The assay measures ADP formed from the ATPase reaction. […] Read luminescence using EnVision microplate reader with ultra-luminescence module (Perkin Elmer Inc). Concentration-response curve-fitting and IC50 determination was performed using Genedata Screener Software (Standard 15.0.1, Genedata Inc) with a four-parameter logistic regression fit model.
Table A provides data for compounds exemplified in the present application and priority document thereof, as representative compounds of the present invention, as follows: chemical name (as named by either ACD software or ChemDraw (Professional 15.0)) and biological data (IC50 in μM). Ex. # refers to Example No.

T1 sequence (Q8NI77 1-467): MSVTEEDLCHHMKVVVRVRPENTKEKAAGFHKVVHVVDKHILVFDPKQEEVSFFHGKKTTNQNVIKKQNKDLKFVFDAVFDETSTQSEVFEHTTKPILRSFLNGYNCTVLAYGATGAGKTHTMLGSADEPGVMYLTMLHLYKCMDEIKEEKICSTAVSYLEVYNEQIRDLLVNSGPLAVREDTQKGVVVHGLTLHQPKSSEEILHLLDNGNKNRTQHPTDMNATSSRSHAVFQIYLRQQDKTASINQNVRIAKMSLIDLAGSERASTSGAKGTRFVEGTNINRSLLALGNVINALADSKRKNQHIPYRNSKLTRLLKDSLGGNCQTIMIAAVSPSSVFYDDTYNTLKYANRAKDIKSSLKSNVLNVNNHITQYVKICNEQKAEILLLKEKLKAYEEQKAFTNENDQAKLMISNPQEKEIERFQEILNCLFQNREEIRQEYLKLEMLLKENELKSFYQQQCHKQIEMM
T1 sequence (P02550 whole entry partner): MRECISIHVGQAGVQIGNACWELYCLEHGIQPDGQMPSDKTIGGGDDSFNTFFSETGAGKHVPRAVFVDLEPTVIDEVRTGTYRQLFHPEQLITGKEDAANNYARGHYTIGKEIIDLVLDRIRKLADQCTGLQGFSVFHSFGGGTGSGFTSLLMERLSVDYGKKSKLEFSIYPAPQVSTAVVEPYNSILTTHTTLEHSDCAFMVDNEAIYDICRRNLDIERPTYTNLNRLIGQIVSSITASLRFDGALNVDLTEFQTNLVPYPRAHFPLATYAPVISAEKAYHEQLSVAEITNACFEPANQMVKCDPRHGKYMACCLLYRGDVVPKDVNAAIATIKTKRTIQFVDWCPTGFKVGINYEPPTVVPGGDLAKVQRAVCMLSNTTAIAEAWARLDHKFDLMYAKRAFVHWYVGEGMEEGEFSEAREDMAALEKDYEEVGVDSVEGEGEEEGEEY
T1 sequence (P02554 whole entry partner): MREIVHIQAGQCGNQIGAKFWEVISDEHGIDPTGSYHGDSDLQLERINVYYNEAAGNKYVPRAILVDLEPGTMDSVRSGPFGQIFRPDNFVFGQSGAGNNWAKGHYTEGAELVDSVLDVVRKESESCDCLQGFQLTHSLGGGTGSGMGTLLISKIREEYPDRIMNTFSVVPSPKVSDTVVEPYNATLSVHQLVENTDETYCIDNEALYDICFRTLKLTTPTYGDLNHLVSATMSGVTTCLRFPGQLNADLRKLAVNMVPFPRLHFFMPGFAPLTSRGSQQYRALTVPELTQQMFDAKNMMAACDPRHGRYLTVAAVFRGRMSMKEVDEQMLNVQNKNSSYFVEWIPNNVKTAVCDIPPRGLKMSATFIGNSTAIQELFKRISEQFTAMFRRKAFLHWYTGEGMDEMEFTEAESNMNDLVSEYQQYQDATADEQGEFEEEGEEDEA

| SMILES | IC50 [µM] |
| --- | --- |
| CC1(C)CCN(c2ncccc2C(=O)Nc2cccc(S(=O)(=O)N3CCCCC3)c2)CC1 [Example 100, 2-(4,4-Dimethylpiperidin-1-yl)-N-(3-(piperidin-1-ylsulfonyl)phenyl)nicotinamide] | 0.553 |
| O=C(Nc1cccc(S(=O)(=O)N2CCCCC2)c1)c1cccnc1N1CCC2(CC1)CC2 [Example 100-1, N-(3-(piperidin-1-ylsulfonyl)phenyl)-2-(6-azaspiro[2.5]octan-6-yl)nicotinamide] | 0.342 |
| CCC1CCN(c2ncccc2C(=O)Nc2cccc(S(=O)(=O)N3CCCCC3)c2)CC1 [Example 100-2, 2-(4-ethylpiperidin-1-yl)-N-(3-(piperidin-1-ylsulfonyl)phenyl)nicotinamide] | 0.983 |
| CCCC1CCN(c2ncccc2C(=O)Nc2cccc(S(=O)(=O)N3CCCCC3)c2)CC1 [Example 100-3, N-(3-(piperidin-1-ylsulfonyl)phenyl)-2-(4-propylpiperidin-1-yl)nicotinamide] | 0.656 |
| O=C(Nc1cccc(S(=O)(=O)N2CCCCC2)c1)c1cccnc1N1CCC2(CCC2)CC1 [Example 100-4, N-(3-(piperidin-1-ylsulfonyl)phenyl)-2-(7-azaspiro[3.5]nonan-7-yl)nicotinamide] | 0.217 |
| O=C(Nc1cccc(S(=O)(=O)N2CCC(F)CC2)c1)c1cccnc1N1CCC2(CCC2)CC1 [Example 100-5, N-(3-((4-fluoropiperidin-1-yl)sulfonyl)phenyl)-2-(7-azaspiro[3.5]nonan-7-yl)nicotinamide] | 0.16 |
| O=C(Nc1cccc(S(=O)(=O)N2CCC(F)(F)CC2)c1)c1cccnc1N1CCC2(CCC2)CC1 [Example 100-6, N-(3-((4,4-difluoropiperidin-1-yl)sulfonyl)phenyl)-2-(7-azaspiro[3.5]nonan-7-yl)nicotinamide] | 0.09 |
| O=C(Nc1cccc(S(=O)(=O)N2CCC(F)(F)CC2)c1)c1cccnc1N1CCC2(CC1)CC2 [Example 100-7, N-(3-((4,4-difluoropiperidin-1-yl)sulfonyl)phenyl)-2-(6-azaspiro[2.5]octan-6-yl)nicotinamide] | 0.104 |
| O=C(Nc1cccc(S(=O)(=O)N2CCC(F)CC2)c1)c1cccnc1N1CCC2(CC1)CC2 [Example 100-8, N-(3-((4-fluoropiperidin-1-yl)sulfonyl)phenyl)-2-(6-azaspiro[2.5]octan-6-yl)nicotinamide] | 0.259 |
| Cc1ccc(NC(=O)c2cccnc2N2CCC(C)(C)CC2)cc1S(=O)(=O)N1CCCCC1 [Example 100-9, 2-(4,4-dimethylpiperidin-1-yl)-N-(4-methyl-3-(piperidin-1-ylsulfonyl)phenyl)nicotinamide] | 0.282 |
| Cc1ccc(NC(=O)c2cccnc2N2CCC3(CC2)CC3)cc1S(=O)(=O)N1CCCCC1 [Example 100-10, N-(4-methyl-3-(piperidin-1-ylsulfonyl)phenyl)-2-(6-azaspiro[2.5]octan-6-yl)nicotinamide] | 0.211 |
| CC(C)NS(=O)(=O)c1cccc(NC(=O)c2cccnc2N2CCC3(CC2)CC3)c1 [Example 100-11, N-(3-(N-isopropylsulfamoyl)phenyl)-2-(6-azaspiro[2.5]octan-6-yl)nicotinamide] | 0.934 |
| CC(C)(C)NS(=O)(=O)c1cccc(NC(=O)c2cccnc2N2CCC3(CC2)CC3)c1 [Example 100-12, N-(3-(N-(tert-butyl)sulfamoyl)phenyl)-2-(6-azaspiro[2.5]octan-6-yl)nicotinamide] | 0.175 |

More lines, now with the values ahead:

| IC50 [µM] | SMILES |
| --- | --- |
| 0.07 | CC(C)(C)NS(=O)(=O)c1cccc(NC(=O)c2ccc([C@](C)(O)C(F)(F)F)nc2N2CCC3(CC2)CC3)c1 (single isomer, unassigned) [Example 107-1] |
| 0.097 | CC(C)(C)NS(=O)(=O)c1cccc(NC(=O)c2ccc([C@@](C)(O)C(F)(F)F)nc2N2CCC3(CC2)CC3)c1 (single isomer, unassigned) [Example 107-2] |
| 0.087 | CC(C)(C)NS(=O)(=O)c1cccc(NC(=O)c2ccc([C@](C)(O)CO)nc2N2CCC3(CC2)CC3)c1 (single isomer, unassigned) [Example 109-1] |
| 0.065 | CC(C)(C)NS(=O)(=O)c1cccc(NC(=O)c2ccc([C@@](C)(O)CO)nc2N2CCC3(CC2)CC3)c1 (single isomer, unassigned) [Example 109-2] |
| 0.712 | Cc1ccc(NC(=O)c2cccnc2N2CCC3(CC2)CC3)cc1S(=O)(=O)NC1CC1 [Example 100-13, N-(3-(N-cyclopropylsulfamoyl)-4-methylphenyl)-2-(6-azaspiro[2.5]octan-6-yl)nicotinamide] |
| 0.287 | O=C(Nc1cccc(S(=O)(=O)C2CCCC2)c1)c1cccnc1N1CCC2(CC1)CC2 [Example 100-14, N-(3-(cyclopentylsulfonyl)phenyl)-2-(6-azaspiro[2.5]octan-6-yl)nicotinamide] |
| 0.85 | CCC1CCN(c2ncccc2C(=O)Nc2cccc(S(=O)(=O)C3CCCC3)c2)CC1 [Example 100-15, N-(3-(cyclopentylsulfonyl)phenyl)-2-(4-ethylpiperidin-1-yl)nicotinamide] |
| 1.01 | CCC1(C)CCN(c2ncccc2C(=O)Nc2cccc(S(=O)(=O)C3CCCC3)c2)CC1 [Example 100-16, N-(3-(cyclopentylsulfonyl)phenyl)-2-(4-ethyl-4-methylpiperidin-1-yl)nicotinamide] |
| 0.778 | CCCC1CCN(c2ncccc2C(=O)Nc2cccc(S(=O)(=O)C3CCCC3)c2)CC1 [Example 100-17, N-(3-(cyclopentylsulfonyl)phenyl)-2-(4-propylpiperidin-1-yl)nicotinamide] |
| 0.134 | O=C(Nc1cccc(S(=O)(=O)C2CCCC2)c1)c1cccnc1N1CCC2(CCC2)CC1 [Example 100-18, N-(3-(cyclopentylsulfonyl)phenyl)-2-(7-azaspiro[3.5]nonan-7-yl)nicotinamide] |
| 0.734 | O=C(Nc1cccc(S(=O)(=O)C2CCCC2)c1)c1cccnc1N1CCC2(CC1)CC(F)(F)C2 [Example 100-19, N-(3-(cyclopentylsulfonyl)phenyl)-2-(2,2-difluoro-7-azaspiro[3.5]nonan-7-yl)nicotinamide] |
| 0.279 | Cc1ccc(NC(=O)c2cccnc2N2CCC3(CC2)CC3)cc1S(=O)(=O)C1CCCC1 [Example 100-20, N-(3-(cyclopentylsulfonyl)-4-methylphenyl)-2-(6-azaspiro[2.5]octan-6-yl)nicotinamide] |
| 0.76 | O=C(Nc1cccc(S(=O)(=O)C2CCCC2)c1F)c1cccnc1N1CCC2(CC1)CC2 [Example 100-21, N-(3-(cyclopentylsulfonyl)-2-fluorophenyl)-2-(6-azaspiro[2.5]octan-6-yl)nicotinamide] |
| 0.91 | O=C(Nc1cccc(S(=O)(=O)CC2CC2)c1)c1cccnc1N1CCC2(CC1)CC2 [Example 100-22, N-(3-((cyclopropylmethyl)sulfonyl)phenyl)-2-(6-azaspiro[2.5]octan-6-yl)nicotinamide] |
| 0.61 | O=C(Nc1cccc(S(=O)(=O)C2CCCCC2)c1)c1cccnc1N1CCC2(CC1)CC2 [Example 100-23, N-(3-(cyclohexylsulfonyl)phenyl)-2-(6-azaspiro[2.5]octan-6-yl)nicotinamide] |
| 0.923 | O=C(Nc1cccc(S(=O)(=O)C2CCC2)c1)c1cccnc1N1CCC2(CC1)CC2 [Example 100-24, N-(3-(cyclobutylsulfonyl)phenyl)-2-(6-azaspiro[2.5]octan-6-yl)nicotinamide] |
